What was measured:
[1] = Gravimetric vapor sorption (GVS), hygroscopicity determination; type: physicochemical; settings: 25° C.; variation in mass between 40% and 80% RH in first sorption scan; classification in analogy to Ph. Eur. 10.0, section 5.11
Procedure: Gravimetric Vapor Sorption (GVS) Moisture sorption isotherm was collected on a dynamic vapor sorption analyzer IGASORP HAS-036-080 from Hiden Isochema operated with Isochema HIsorp 2019 software version 4.02.0070. Typically, about 30 mg of a sample is placed in the sample holder and is submitted to a stepwise equilibration at defined relative humidity (RH) setpoints at 25° C. The sample mass is recorded at these setpoints and are used to build the moisture sorption isotherm. The relative humidity setpoints used were 40% to 0% RH followed by 0% to 95% RH in 5% RH intervals. Data shown consist of the moisture sorption isotherm in the range 5% to 90% of the sample submitted to the increasing relative humidity. The variation in mass between 40% relative humidity and 80% relative humidity in the first sorption scan is evaluated for the hygroscopicity determination. The classification is done in analogy to the European Pharmacopeia (Ph. Eur.) 10.0, section 5.11.

[2] = Solid-state stability of crystalline form 3 on isolation/drying (XRPD); type: physicochemical; settings: isolation by filter centrifugation or drying under reduced pressure; transforms to crystalline form 1
Procedure: In another experiment 0.04 mL of MeCN is added to 20 mg of COMPOUND (e.g. as obtained from Example 1) in a standard glass HPLC vial, and the suspension in the closed vial is submitted to a temperature variation cycle while being stirred with a magnetic stirring bar. Temperature cycling (repetition of heating 20° C. to 40° C. in 1 hour and cooling 40° C. to 20° C. in 4 hours) and stirring for 25 hours is done in a Polar Bear device (Cambridge reactor design, UK) The obtained solid, when analyzed without drying, is COMPOUND in crystalline form 3.
Form 3 is observed by XRPD when measured still in presence of sufficient MeCN. Isolation by filter centrifugation or isolation and drying under reduced pressure leads to the transformation of crystalline form 3 to crystalline form 1, pointing to the metastable nature of form 3 in absence of sufficient MeCN.

Row | GVS (hygroscopicity) [1] | Stability of the crystalline form in absence of sufficient MeCN [2] | Compound
1 | Not hygroscopic | – | Cc1ncn(CC(=O)N2CCN(c3sc(C(F)(F)F)nc3-c3cnc(C(F)(F)F)nc3)C[C@H]2CCO)n1 [COMPOUND in crystalline form 1, 1-{(R)-2-(2-Hydroxy-ethyl)-4-[2-trifluoromethyl-4-(2-trifluoromethyl-pyrimidin-5-yl)-thiazol-5-yl]-piperazin-1-yl}-2-(3-methyl-[1,2,4]triazol-1-yl)-ethanone]
2 | – | metastable | Cc1ncn(CC(=O)N2CCN(c3sc(C(F)(F)F)nc3-c3cnc(C(F)(F)F)nc3)C[C@H]2CCO)n1 [crystalline form 3, 1-{(R)-2-(2-Hydroxy-ethyl)-4-[2-trifluoromethyl-4-(2-trifluoromethyl-pyrimidin-5-yl)-thiazol-5-yl]-piperazin-1-yl}-2-(3-methyl-[1,2,4]triazol-1-yl)-ethanone]
